In patent publication US8748464B2, “Use of SIRT1 activators or inhibitors to modulate an immune response” (The J. David Gladstone Institutes, priority 2008, dated 2014):

What was measured:
Jurkat T cells [1] = experiment: Real-time RT-PCR of IL-2 mRNA in α-CD3/28-activated Jurkat T cells; assay type: cell-based, human
Method: Viral supernatant containing 1500 ng of p24 was used to infect 18×10^6 JurkatT cells. Infections were carried out in 6-well plates at 2400 rpm in a Beckman-Coulter centrifuge for 2 h at 32° C. in the presence of polybrene (1 μg/ml, Sigma).
Total RNA was extracted using RNA STAT-60 reagent (Tel-Test) according to the manufacturer's instruction. The first strand cDNA was generated using 2 μg of total RNA and SuperScript reverse transcriptase (Invitrogen). […] Relative gene expression ratios between stimulated and nonstimulated conditions were calculated by the equation, ratio=2^−ΔΔCt, comparative Ct method (Applied Biosystems).
Infected cultures were activated for 2 h and 8 h with α-CD3/28 antibodies. (B) Real-time RT-PCR analysis of IL-2 mRNA levels in infected cultures 2 h after activation with α-CD3/28.

[2] = test system: FLAG-FoxP3 in 293 T cells; experiment: Immunoprecipitation/western blot of acetylated FLAG-FoxP3 or HA-AML1/Runx1 in 293 T cells cotransfected with p300; assay type: cell-based
Text: FIGS. 10A-D. SIRT1 interacts with FoxP3 and inhibition of SIRT1 deacetylase activity increases acetylation of FoxP3. (A) Communoprecipitation/western blot analysis of FLAG-tagged FoxP3 and HA-tagged SIRT1 after transfection of corresponding expression vectors or empty vector controls into 293T cells. (B) Communoprecipitation assay of SIRT1 and FoxP3 deletion mutants. A schematic summary of the binding of FoxP3 mutants to SIRT1 is shown. The forkhead box (FH) indicates the DNA binding domain ZnF, zinc finger domain; LZ, leucine zipper. […] An expression vector for the p300 acetyltransferase was cotransfected with FoxP3. (D) The same experiment as in (C) using HA-AML1/Runx1. Immunoprecipitations were performed with either anti-FLAG antibody coupled to agarose (α-FLAG agarose) (C) or anti-hemagglutinin antibody coupled to agarose (α-HA agarose) (D) and western blotting with rabbit polyclonal antibody to acetyl-lysine (α-acetyl lysine) (α-AcK), α-FLAG or α-HA antibodies.

[3] = test system: FLAG-FoxP3 in 293 T cells; experiment: Western blot of FLAG-FoxP3 (wild type or mutant) or FLAG-AML1/Runx1 expression in 293 T cells; assay type: cell-based; details: 293 T cells
Method: To determine whether the three newly identified acetylated lysine residues regulate FoxP3 stability, mutants were generated in which each of three lysine residues was substituted to arginines (KR), a conservative mutation that preserves the positive charge of the residue.
To investigate the effect of SIRT1 inhibition and the three newly identified acetylation sites on FoxP3 protein stability, wild type and 3KR mutant FoxP3 protein expression was measured after treatment with cycloheximide (CHX), a general inhibitor of protein translation.
(B) Scheme of acetylated lysine residues identified by mass spectrometry using immunoprecipitated FLAG-FoxP3 protein. The murine protein is shown.

SIRT1 [4] = target: T1, SIRT1 (Homo sapiens, UniProt Q96EB6); experiment: In vitro deacetylation of acetylated recombinant p65 by recombinant SIRT1, western blot α-AcK310 p65; assay type: biochemical; set-up: purchased Biomol; details: synthetic Tat 0.1 μg or nicotinamide 10 mM, preincubated 15 min; NAD 1 mM, 3 h, 37° C.
T1 sequence (Q96EB6 1-747): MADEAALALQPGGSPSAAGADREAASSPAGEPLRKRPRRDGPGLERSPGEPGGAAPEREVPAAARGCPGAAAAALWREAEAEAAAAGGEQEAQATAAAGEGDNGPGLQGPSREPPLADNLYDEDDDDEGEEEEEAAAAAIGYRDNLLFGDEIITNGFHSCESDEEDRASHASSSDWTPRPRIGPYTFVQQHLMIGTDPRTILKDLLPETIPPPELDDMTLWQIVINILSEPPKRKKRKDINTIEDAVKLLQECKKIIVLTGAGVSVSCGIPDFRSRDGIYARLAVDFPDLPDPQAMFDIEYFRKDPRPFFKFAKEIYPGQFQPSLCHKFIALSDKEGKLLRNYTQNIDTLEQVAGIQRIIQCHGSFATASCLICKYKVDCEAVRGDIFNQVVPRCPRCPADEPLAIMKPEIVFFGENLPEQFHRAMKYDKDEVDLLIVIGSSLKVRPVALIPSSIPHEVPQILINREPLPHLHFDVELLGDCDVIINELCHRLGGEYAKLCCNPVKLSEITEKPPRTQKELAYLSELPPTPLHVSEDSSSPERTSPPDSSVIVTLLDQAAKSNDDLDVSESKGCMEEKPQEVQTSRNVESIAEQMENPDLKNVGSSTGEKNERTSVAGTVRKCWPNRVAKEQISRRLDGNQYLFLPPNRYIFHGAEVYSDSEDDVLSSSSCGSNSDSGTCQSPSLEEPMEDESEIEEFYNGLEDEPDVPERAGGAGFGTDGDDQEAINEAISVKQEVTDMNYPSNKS
Method: Recombinant p65 protein prepared from baculovirus-infected Sf9 insect cells (BD Biosciences) was acetylated by immunoprecipitated p300 overexpressed in 293 cells as previously described (Chen et al., 2005). Acetylated p65 protein was incubated with recombinant SIRT1 (1 μg/5U; Biomol) in SIRT1 deacetylase buffer (50 mM Tris-HCl pH 9, 4 mM MgCl2, 0.2 mM DTT) in the presence of NAD (1 mM; Sigma) for 3 h at 37° C. […] Reactions were stopped by the addition of SDS loading buffer, boiled, and after brief centrifugation, analyzed by western blotting with rabbit a-AcK310 p65 (Chen et al., 2005) or mouse α-p65 antibodies (sc-8008, Santa Cruz).
Next, we examined the effect of Tat on deacetylation of p65. In vitro acetylated recombinant p65 protein was incubated with recombinant SIRT1 and synthetic Tat proteins. The extent of deacetylation was determined by western blotting with antibody specific for acetylated K310 in p65 (α-AcK310 p65). […]
FIGS. 5A-D. Tat inhibits the SIRT1 deacetylase activity (A) In vitro deacetylation assay of recombinant SIRT1 in the presence of synthetic Tat (aa 1-72). The rate of 1 μM SIRT1 was calculated for 200 μM fluorogenic deacetylase substrate (aa 379-382 of p53) in the presence of twelve concentrations of synthetic Tat. […] Total cell lysates were analyzed by western blotting with α-AcK310 p65 or α-T7 antibodies. […]

Jurkat T cells [5] = experiment: IL-2 protein ELISA in supernatant of α-CD3-stimulated Jurkat T cells infected with EF-1α-GFP or EF-1α-Tat-GFP viruses; assay type: cell-based, human; details: 16 hrs
Method: Lentiviral vectors, which contained the heterologous elongation factor 1α (EF-1α) promoter driving Tat and GFP expression, were generated. High titer viral stocks were produced and used to infect Jurkat T cells. […] Infected cultures were stimulated with antibodies specific for the CD3 receptor and treated with increased concentrations of resveratrol (0.4 μM, 2 μM, and 10 μM), a known SIRT1 activator for 16 hrs. IL-2 protein was measured in the culture supernatant by ELISA assay. Following stimulation with α-CD3 antibody, IL-2 protein was superinduced ˜4-fold by wild type Tat (FIG. 8A). In cells expressing Tat, ˜2300 pg/ml of IL-2 protein was detected in response to α-CD3 treatment, whereas in control cells, only ˜600 pg/ml of IL-2 protein was induced.
The effects of small molecule of SIRT1 ([…]) on T cell hyperactivation in Tat-expressing cells were examined. Jurkat T cells were infected with EF-1α-GFP or EF-1α-Tat-GFP viruses (FIG. 8B). Infected cultures were stimulated with α-CD3 antibody and treated with SRT2183 (0.2, 1, and 5 μM) for 16 hrs.
FIGS. 8A and 8B. Resveratrol and small molecule activator of SIRT1 (SRT2183) suppresses T cell hyperactivation by Tat. (A) IL-2 protein levels measured by ELISA in the supernatant of infected cultures. 24 hrs after infection with EF1α-GFP and EF1α-Tat-GFP viruses, Jurkat T cells were stimulated with α-CD3 antibody in the presence of increased concentrations of resveratrol (0.4, 2, and 10 μM) for 16 hrs. (B) 24 hrs after infection with EF1α-GFP and EF1α-Tat-GFP viruses, Jurkat T cells were stimulated with α-CD3 antibody in the presence of increased concentrations of SRT2183 (0.2, 1, and 5 μM) for 16 hrs. IL-2 protein levels were measured by ELISA in the supernatant of infected cultures.

SIRT1 [6] = target: T1, SIRT1; details: Howitz et al. 2003; Baur et al. 2006; cited from earlier work

Row | Structure (SMILES) | effect of combination with Tat on IL-2 expression (Jurkat T cells [1]) | IL-2 mRNA levels (Jurkat T cells [1]; noninfected Jurkat T cells, nicotinamide 10 mM 1 h before α-CD3/28) | acetylation levels of FoxP3 [2] | acetylation of AML1/Runx1 [2] | FoxP3 mRNA levels [3] | FoxP3 protein expression ([3]; nicotinamide 5 mM, Ex-527 50 μM or TSA 400 nM, 16 hours) | deacetylation of p65 (K310) by SIRT1 (SIRT1 [4]) | ability of Tat to superinduce IL-2 production (Jurkat T cells [5]; 10 μM) | superinduction of IL-2 protein in Tat-expressing cells (Jurkat T cells [5]; 0.4, 2 and 10 μM) | activation of SIRT1 enzymatic activity (SIRT1 [6])
1 | NC(=O)c1cccnc1 [nicotinamide] | no additive effect | superinduced IL-2 mRNA to similar levels as Tat | increased acetylation levels of FoxP3 | increased to the same extent | No effect | upregulation of protein expression | same inhibition of p65 deacetylation |  |  | 
2 | Oc1ccc(/C=C/c2cc(O)cc(O)c2)cc1 [resveratrol] |  |  |  |  |  |  |  | completely impaired | abolished by resveratrol in a concentration dependent manner | (weak) reversible activator
